# Test results reported in US6656690B2, “Mass spectrometric methods for biomolecular screening” (priority 1998, dated 2003).
# pKd: −log10 of the molar value. Entries after “also recorded” stand apart in the source; their conditions may differ.
# Tests used:
# 16S A site 27mer RNA = test: ESI-FTICR mass spectrometric (MASS) binding assay, 16S A-site 27-mer RNA model; parameters: species or system prokaryotic; details: for complexes observed with 16S (in words): aminoglycosides 500 nM each, mixture with untagged 16S and tagged 18S
# Method: (§1) The ESI-FTICR mass spectrum depicted in FIG. 26 was acquired from a […] mixture of untagged 16S and tagged 18S in the presence of an equimolar mixture of five aminoglycosides. It is to be understood that other biomolecules may be used in place of the aminoglycosides. The aminoglycosides have been selected from two classes of 2-deoxystreptamines: 4,5-disubstituted (paromomycin, and lividomycin), and 4,6-disubstituted (tobramycin, sisomicin, and bekanamycin), present at 500 nM each. Complexes corresponding to 1:1 binding of individual aminoglycosides were observed between 16S and all members of the aminoglycoside mixture, with the apparent affinities estimated from the abundances of the respective complexes differing substantially. Signal intensities from the complexes with paromomycin (m/z 1925.572) and lividomycin (m/z 1954.790) are consistent with MS-measured dissociation constants of 110 nM and 28 nM, respectively. The intensities of 16S complexes with tobramycin (m/z 1895.960), bekanamycin (m/z 1899.171), and sisomicin (m/z 1891.972) were reduced, consistent with solution dissociation constants of […]. Wang, et al., Biochemistry, 1997, 36, 768-779. […] The spectrum is calibrated using multiple isotope peaks of the (M-5H^+)^5− and (M-4H^+)^4− charge states of the free RNA as internal mass standards which brackets the m/z range in which complexes are observed. The average mass measurement error obtained for the complexes in FIG. 26 is 2.1 ppm when m/z differences are measured between the most abundant (4 ^13C) isotope peak of 16S and each complex. This post calibration scheme is easily automated which enables rapid, high precision mass measurements of affinity selected ligands against multiple targets in a high throughput mode.
# A preferred first step of MASS screening involves mixing the RNA target (or targets) with a combinatorial library of ligands designed to bind to a specific site on the target molecule(s). Specific noncovalent complexes formed in solution between the target(s) and any library members are transferred into the gas phase and ionized by ESI. As described herein, from the measured mass difference between the complex and the free target, the identity of the binding ligand can be determined. The dissociation constant of the complex can be determined in two ways: if a ligand with a known binding affinity for the target is available, a relative Kd can be measured by using the known ligand as an internal control and measuring the abundance of the unknown complex to the abundance of the control, alternatively, if no internal control is available, Kd's can be determined by making a series of measurements at different ligand concentrations and deriving a Kd value from the “titration” curve.
# Electrospray ionization Fourier transform ion cyclotron resonance mass spectrometry was performed on a solution containing […] 16S RNA (the 27-mer construct shown in FIG. 24) and 500 nM paromomycin is depicted in FIG. 13. A 1:1 complex was observed between the paromomycin and the RNA consistent with specific aminoglycoside binding at the A-site. The insets show the measured and calculated isotope envelopes of the (M-5H+)5− species of the free RNA and the RNA-paromomycin complex. High precision mass measurements were acquired using isotope peaks of the (M-5H+)^5− and (M-4H^+)^4− charge states of the free RNA as internal mass standards and measuring the m/z difference between the free and bound RNA.
# ESI-MS measurements of a solution containing a fixed concentration of RNA at different concentrations of ligand were obtained. By measuring the ratio of bound:unbound RNA at varying ligand concentrations, the Kd was determined by 1/slope of the “titration curve”. The MS derived value of 110 nM is in good agreement with previously reported literature value of 200 nM. […]
# 18S A site model = test: ESI-FTICR mass spectrometric (MASS) binding assay, mass-tagged 18S A-site 27-mer RNA model; parameters: species or system eukaryotic; details: aminoglycosides 500 nM each, mixture with untagged 16S and tagged 18S
# Method: as §1, with “The” for “The spectrum is calibrated using multiple isotope peaks of the (M-5H^+)^5− and (M-4H^+)^4− charge states of the free RNA as internal mass standards which brackets the m/z range in which complexes are observed. The”, “This post calibration scheme is easily automated which enables rapid, high precision mass measurements of affinity selected ligands against multiple targets in a high throughput mode.” left out
SMILES,complexes observed with 16S (in words) (16S A site 27mer RNA),complexes observed with 16S (in words) (16S A site 27mer RNA; listed as bekamycin),complexes observed with 18S (in words) (18S A site model),"pKd (16S A site 27mer RNA; ESI-FTICR MS, 16S A site 27mer, read-out: MS-measured dissociation constant (KD))",enhancement of binding affinity for 16S relative to paromomycin (16S A site 27mer RNA; lividomycin vs paromomycin) [fold],complexes observed with 16S (in words) (16S A site 27mer RNA; listed as sisomycin)
NC[C@H]1O[C@H](O[C@H]2[C@H](O)[C@@H](O[C@H]3O[C@H](CO)[C@@H](O)[C@H](N)[C@H]3O)[C@H](N)C[C@@H]2N)[C@H](N)[C@@H](O)[C@@H]1O [bekanamycin],reduced,Weaker complexes,–,–,–,–
NC[C@@H]1O[C@H](O[C@H]2[C@@H](O)[C@H](O[C@@H]3[C@@H](O)[C@H](N)C[C@H](N)[C@H]3O[C@H]3O[C@H](CO)[C@@H](O)C[C@H]3N)O[C@@H]2CO)[C@H](N)[C@@H](O)[C@@H]1O[C@H]1O[C@H](CO)[C@@H](O)[C@H](O)[C@@H]1O [lividomycin],High affinity complexes,–,complete absence of complexes,7.55,~4,–
CN[C@@H]1[C@@H](O)[C@@H](O[C@@H]2[C@@H](O)[C@H](O[C@H]3OC(CN)=CC[C@H]3N)[C@@H](N)C[C@H]2N)OC[C@]1(C)O [sisomicin],reduced,–,–,–,–,Weaker complexes
NC[C@H]1O[C@H](O[C@H]2[C@H](O)[C@@H](O[C@H]3O[C@H](CO)[C@@H](O)[C@H](N)[C@H]3O)[C@H](N)C[C@@H]2N)[C@H](N)C[C@@H]1O [tobramycin],reduced; also recorded: Weaker complexes,–,–,–,–,–
